“Also recorded” adds a separate entry of the source.
Key:
immobilized rTF = test: Blood perfusion over immobilized rTF, volume of platelet aggregates and fibrin; assay type: cell-based, human
Protocol: (§1) Glass coverslips treated with 0.2 mg/ml poly-L-lysine for 6 h at 37° C. were coated with rTF for 18-20 hours at 37° C. or 2.5 mg/ml acid-insoluble type I collagen for 2 hours at 22-25° C. Then they were rinsed with pH 7.4 buffered-saline, assembled in a rectangular flow chamber with a 125 μm-high silicon gasket and positioned on a confocal microscope stage for analysis. Venous blood for testing was collected into final 10.9 mM trisodium citrate using a plastic syringe for normal volunteers or Vacutainer tubes (Becton Dickinson, Buccinasco, Milan) for patients and controls. Before perfusion at a flow rate yielding an initial wall shear rate of 300 s^−1 maintained with a syringe pump (Harvard Apparatus, Holliston, Mass.), CaCl2 was added to obtain 1.29 mM Ca^2+. In the blood of patients—potentially hypercoagulable—and related controls, lepirudin (50 nM) was also added to neutralize thrombin possibly generated before testing. […] For experiments with WT and mutant FVIIa, cells from group O citrated blood, containing 50 μg/ml CTI and 10 U/ml (ADPase activity) apyrase, were washed free of plasma by sequential centrifugation steps at 1500 g for 7 min. After the first, plasma was replaced with an equal volume of calcium-free Tyrode buffer, pH 6.5, with 5 U/ml apyrase; then with buffer and 1.25 U/ml apyrase; and finally with human FVII deficient plasma (George King Bio-Medical, Overland Park, Kans.) up to the original blood volume. Cell count results in reconstituted and native blood were within 90%. Experiments in Milan (Italy) were performed with a Leica TCS SP5 microscope and HCX PL APO 63x/1.40 NA oil immersion objective (Leica Microsystems GmbH, Wetzlar, Germany); in La Jolla (California) with a Zeiss Axiovert 135M/LSM 410 and Plan-Apochromat 40x/1.40 NA oil immersion objective (Carl Zeiss AG, Oberkochen, Germany).
(§2) Platelets adhering and aggregating onto the surface were visualized by adding quinacrine-HCl (mepacrine; 10 μg/ml; Sigma-Aldrich) to blood. Deposited fibrin was visualized with Alexa Fluor 546-labeled (Invitrogen) mouse monoclonal IgG (50 μg/ml) specific for the B chain of mouse and human fibrin (HB-8545; ATCC). Blood was perfused for 3-5 min at 37° C. with a syringe pump (Harvard Apparatus Inc.) at a flow rate yielding an initial (in the unobstructed flow path) wall shear rate of 300 s^−1. This was followed by buffer (DMEM) for 2 minutes to facilitate fibrin quantification by confocal z section analysis using a Zeiss Axiovert 135M/LSM 410 microscope (Carl Zeiss) and Plan-Apochromat×63/1.40 NA oil immersion objective. Image analysis was performed with NIH ImageJ64. Deposited fibrin volume was measured from confocal sections collected at 4 preset positions in the flow chamber. Total volume of deposited platelets and fibrin was calculated from the sum of the respective area coverage per section multiplied by the z interval (2 μm). All studies involving human subjects were conducted following institutionally approved protocols.
TF-coated glass coverslips were perfused with venous blood at a wall shear rate of 300 s^−1. A Zeiss Axiovert 135M/LSM 410 and Plan-Apochromat 40x/1.40 NA oil immersion objective (Carl Zeiss AG, Oberkochen, Germany) was used to visualize platelets/leukocytes and fibrin stained with mepacrine and a specific anti-body, respectively. Image analysis to calculate volumes was performed as described herein.
Glass coverslips treated with 0.2 mg/ml poly-L-lysine for 6 h at 37° C. were coated with rTF for 18-20 hours at 37° C., rinsed with buffered-saline and assembled in a rectangular flow chamber with a 125 μm-high silicon gasket. Venous blood was collected into final 10.9 mM trisodium citrate using a plastic syringe. CaCl2 was added to obtain 1.29 mM Ca^2+ before perfusion at a wall shear rate of 300 s-1 maintained with a syringe pump (Harvard Apparatus, Holliston, Mass.). […]

TF-FVIIa = test: FXa generation by TF-FVIIa in reactions with purified components; assay type: biochemical, human; settings: reconstituted system
[1] = tested on: fibrillar collagen type I; test: Blood perfusion over fibrillar collagen type I, volume of platelet aggregates and fibrin; assay type: cell-based, human; settings: blood of treated patients, collagen surface
Protocol: The volume of platelet aggregates and deposited fibrin was measured by confocal microscopy. Statistical analysis by one-way ANOVA and Tukey post-test. *P<0.05; **P<0.01; ***P<0.001.
as §1, with “Cell count results in reconstituted and native blood were within 90%.” left out
as §2, with “Blood was perfused for 3-5 min at 37° C. with a syringe pump (Harvard Apparatus Inc.) at a flow rate yielding an initial (in the unobstructed flow path) wall shear rate of 300 s^−1.” left out, “Image analysis was performed with NIH ImageJ64.” left out, “All studies involving human subjects were conducted following institutionally approved protocols.” left out

initial TG = test: Discontinuous 2-stage assay of initial TG in platelet-poor plasma; assay type: biochemical, human
Protocol: FIG. 21 illustrates, in accordance with embodiments herein, TG assays in FVIII-deficient PPP without or with anti-FVIII inhibitors. (A) Initial TG in discontinuous 2-stage assay was induced by adding 150 fM rTF/200 pM FIXa and 5 μM PL, followed by incubation for 5 min at 37° C. Each column indicates mean+SEM (n=3) of generated FIIa. (B) Comparison of dose-response curve of added FVIII in TG in FVIII-deficient plasma by discontinuous 2-stage assay with that by continuous assay.
FIG. 22 illustrates, in accordance with embodiments herein, FVIIIa-dependent and -independent TG in plasma from Coumadin-treated patients. FVIIIa-dependent TG was induced by adding 150 fM rTF/200 pM FIXa with 1.3 μM PL, while FVIIIa-independent TG was by 1.2 pM rTF with 1.3 μM PL. Each column indicates mean+SEM (n=3) of generated FIIa after 3 min of incubation.
To establish highly sensitive TG assay method, the inventors made a screening of FIIa substrates with high affinity and turnover rate by determining kinetic parameters and then constructed a calibration curve with known concentrations of a FIIa calibrator. In the studies, they found two fluorogenic substrates H-D-cyclohexyl-alanyl-alanyl-argininyl-amidomethylcoumarin (AMC) (Pefafluor TH) and butyloxycarbonyl-valyl-prolinyl-argininyl-AMC (V-P-R-AMC) were suitable for quantifying much low concentrations of FIIa activity with a detection limit of ˜5 pM (FIG. 17). Initial TG was measured with “discontinuous 2-stage assay” using the high sensitive substrate. Briefly, TG was initiated by combined addition of rTF and FIXa with 18 mM CaCl2 into plasma, followed by incubation for up to 5 min at 37° C. After incubation, reactions were terminated with 20 mM EDTA and generated FIIa was measured using the highly sensitive FIIa substrate Pefafluor TH or V-P-R-AMC. In the assays, combined addition of 150 fM rTF and 200 pM FIXa time-dependently produced FIIa in normal platelet-poor plasma (PPP) prepared from healthy donors (FIG. 18A). […] To further validate the assay method, reproducibility of the TG assay method was examined by determination of intra-assay and inter-assay coefficient of variations (CV) using manual assay protocol.

thrombin generation (TG) = assay type: biochemical, human; settings: recalcified PRP containing CTI
Protocol: TG in PRP or reconstituted PRP was evaluated as known to those skilled in the art. Native PRP was prepared from blood collected into final 12.9 mM trisodium citrate by centrifugation at 250 g for 10 min at 25° C. The platelet count was adjusted to 180×10^3/μl by dilution with homologous PPP obtained by centrifuging PRP for 10 min at 1,500 g. CTI was added at 30-50 μg/ml depending on calibrated potency as assessed by FXIIa inhibition. Reconstituted PRP was prepared with washed platelets prepared from normal PRP by adding ⅕th volume of acid citrate-dextrose (71 mM citric acid, 85 mM trisodium citrate, and 111 mM dextrose, pH 4.5) and 5 U/ml apyrase; following centrifugation at 1,500 g for 10 minutes at 25° C., the platelet pellet was resuspended into PPP lacking FVII (George King Bio-Medical) or FIX (Haematologic Technologies) to give a final platelet count of 180·103/μl PRP was mixed with varying concentrations of rTF and/or 20 pM FIXa in 96-well microtiter plates. The reaction was started by adding 18 mM CaCl2 with 360 μM of the thrombin substrate benzyloxycarbonyl-glycyl-glycyl-L-arginine coupled to the fluorogenic group 7-amido-4-methylcoumarin (Gly-Gly-Arg-AMC; Bachem Americas, Torrance, Calif.). Fluorescence was measured continuously at 37° C. for up to 40 min in a spectrofluorometer (355/460 nm excitation/emission). The rate of fluorescence intensity increase as a function of time (dF/dt) was calculated with Turbo Delphi 2006 (Borland Software Corporation, Austin, Tex.) and converted to thrombin-equivalent concentration (nM) using a calibration curve. The endogenous thrombin potential (ETP) of samples, i.e. total generated thrombin activity, was determined from the area under the TG curve. When specified, TG was measured with a discontinuous 2-stage assay with a detection limit of 5 pM. For this, TG was induced by 0.15 pM rTF and 18 mM CaCl2 in reconstituted FVII-deficient PRP including 30 μg/ml CTI with 400 pM WT FVIIa or iFVIIa without or with 20 pM FIXa. After incubation for up to 11 min at 37° C., reactions were terminated by adding 20 mM EDTA and generated thrombin was measured using the highly sensitive thrombin substrate H-D-CHA-Ala-Arg-AMC.2AcOH (Pefafluor TH, Pentapharm, Basel, Switzerland) at 50 μM concentration. In other experiments, TG was induced by TFiFVIIa-FXa-TFPI or TF-iFVIIa-FXa-NAPc2. These stable complexes were pre-formed by incubating 5 nM FXa, 10 nM TF, 10 nM iFVIIa and 40 nM TFPI or NAPc2 in the presence of 2.5 mM CaCl2 for 2 min at 37° C. Complexes were added into FVII-deficient PRP, followed by incubation for 8 min at 37° C.
PRP was prepared from blood collected into trisodium citrate (final concentration 0.0129 M) by centrifugation for at 250 g for 10 min at 25° C.; the platelet count was adjusted at 180.103 per μl by diluting with homologous platelet-poor plasma (PPP) obtained by centrifuging PRP for an additional 10 min at 1,500 g. When indicated, CTI was added at 30 to 50 μg/ml depending on calibrated potency measured by FXIIa inhibition. Reconstituted PRP was prepared by adding normal washed platelets into PPP (without or with CTI) lacking FVII, FVIII (both from George King Bio-Medical, Overland Park, Kans.) or FIX (Haematologic Technologies). […] generation in PRP was measured as described by Hemker et al. 53 μl of PRP was mixed in 96-well microtiter plates with 15 μl of a solution containing rTF and/or one of the intrinsic coagulation pathway proteases—FXIIa, FXIa or FIXa—to achieve the indicated final concentrations. Antibodies or inhibitors were also added at this point at the concentration indicated for each specific case. The reaction was started by adding between 15 and 20 μl of 100 mM CaCl2 and 2 mM fluorogenic substrate, benzyloxycarbonyl-glycyl-glycyl-L-arginine-7-amido-4-methylcoumarin (Gly-Gly-Arg-AMC; Bachem Americas, Torrance, Calif.).

“recombinant [Leu1-Thr2]-63-desulfohirudin [lepirudin]” was tested, and the “effect on deposited fibrin volume in the flow chamber” value (immobilized rTF; lepirudin 50 nM, preliminary experiments) was “limited effect”.

For “TFPI with protein S: TFPI with protein S (PS) cofactor”, the “reduction of FXa produced by TF-FVIIa” value (TF-FVIIa) was over 75%.

For CC(=O)CC(c1ccccc1)c1c(O)c2ccccc2oc1=O (stereo not shown) [warfarin], the fibrin deposition (immobilized rTF; blood of treated patients, high density TF surface) was “significantly reduced”, the “volume of deposited fibrin” value (immobilized rTF; blood of treated patients, higher rTF coating concentration, 300 s^-1, 5 min) was “markedly reduced fibrin formation” and the “volume of deposited fibrin vs untreated controls” value (immobilized rTF; blood of treated patients, lower rTF coating concentration, 300 s^-1, 5 min) was “markedly smaller”. For the same compound, the “volume of platelet aggregates vs controls” value (immobilized rTF; blood of treated patients, rTF coating 20 and 40 pM) was “significantly reduced on both rTF surfaces”, the “mean volume of platelet aggregates vs controls” value [1] was “not significantly different” and the “volume of deposited fibrin vs controls” value [1] was “significantly reduced; also recorded: markedly reduced”. For the same compound, the “FVIIIa-independent TG” value (initial TG; 1.2 pM rTF alone without FIXa, patient plasma) was “abolished even at lower INR”, the “initial FVIIIa-dependent TG” value (initial TG; patient plasma with INR 1.5, 150 fM rTF/200 pM FIXa, 1.3 μM PL, 3 min) was ~15 % of normal plasma and the “initial FVIIIa-dependent TG” value (initial TG; patient plasma with INR 2.9, 150 fM rTF/200 pM FIXa, 1.3 μM PL, 3 min) was ~5 % of normal plasma. The “initial FVIIIa-dependent TG” value (initial TG; patient plasma with much higher INR values) was “completely abolished”.

For COc1ccc(-n2nc(C(N)=O)c3c2C(=O)N(c2ccc(N4CCCCC4=O)cc2)CC3)cc1 [apixaban], the “difference in dose response between rivaroxaban and apixaban” value (thrombin generation (TG)) was about 3 fold.
